Data published in paper PMC6747455, “Active Site Architecture and Reaction Mechanism Determination of Cold Adapted β-D-galactosidase from Arthrobacter sp. 32cB” (International Journal of Molecular Sciences, 2019).
One block for each compound: values may come before it.

How the values were obtained:
[1] = biological target: T1, ArthβDG (Arthrobacter sp. 32cB, UniProt A0A023UGN9); assay: hydrolysis in crystal, product seen by X-ray; assay type: biochemical; details: crystal soaked 1 min
T1 construct: recombinant, pBAD/Myc-His A vector (pBAD-Bgal32cB), E. coli LMG 194 host; ion exchange and size exclusion; five-domain protein, 110 kDa; functional dimer; GH2 family; catalytic residues E441 and E517
T1 sequence (A0A023UGN9 1-1010): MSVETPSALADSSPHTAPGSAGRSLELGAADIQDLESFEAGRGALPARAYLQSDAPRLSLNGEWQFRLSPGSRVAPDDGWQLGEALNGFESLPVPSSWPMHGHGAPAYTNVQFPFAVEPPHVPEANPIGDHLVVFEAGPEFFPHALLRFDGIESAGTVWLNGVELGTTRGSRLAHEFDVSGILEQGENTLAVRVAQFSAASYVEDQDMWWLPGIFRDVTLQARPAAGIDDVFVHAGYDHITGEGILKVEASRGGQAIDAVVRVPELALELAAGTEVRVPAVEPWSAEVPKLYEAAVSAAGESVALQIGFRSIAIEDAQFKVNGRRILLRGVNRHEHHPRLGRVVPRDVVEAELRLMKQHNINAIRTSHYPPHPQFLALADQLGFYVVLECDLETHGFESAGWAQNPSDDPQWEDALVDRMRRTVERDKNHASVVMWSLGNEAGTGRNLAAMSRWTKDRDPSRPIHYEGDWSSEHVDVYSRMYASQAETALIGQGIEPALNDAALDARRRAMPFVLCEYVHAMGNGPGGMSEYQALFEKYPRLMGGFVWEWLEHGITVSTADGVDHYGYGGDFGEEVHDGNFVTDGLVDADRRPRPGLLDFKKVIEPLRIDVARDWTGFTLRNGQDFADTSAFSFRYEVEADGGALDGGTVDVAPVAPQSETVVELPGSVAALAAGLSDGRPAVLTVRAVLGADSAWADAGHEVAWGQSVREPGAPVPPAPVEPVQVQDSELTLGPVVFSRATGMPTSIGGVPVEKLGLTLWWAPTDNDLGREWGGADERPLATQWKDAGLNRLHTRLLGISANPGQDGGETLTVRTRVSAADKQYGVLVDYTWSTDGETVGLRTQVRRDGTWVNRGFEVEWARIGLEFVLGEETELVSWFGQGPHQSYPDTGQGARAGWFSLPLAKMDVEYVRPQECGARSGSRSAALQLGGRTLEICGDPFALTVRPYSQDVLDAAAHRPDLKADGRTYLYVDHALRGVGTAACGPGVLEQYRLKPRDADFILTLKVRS

[2] = biological target: T1, ArthβDG; assay: hydrolysis in crystal, blue coloration; assay type: biochemical; details: 3 to 20 molar excess; blue within 3 min; galactose found in the structure
[3] = biological target: ArthβDG_E441Q mutein (β-D-galactosidase from Arthrobacter sp. 32cB, E441Q) (Arthrobacter sp. 32cB); assay: crystal structure; crystals grown in 25–45% Tacsimate, pH 6.0–8.0, seeded; space group P3121, one protein monomer in the asymmetric unit; dimer shown in Figure 2

Compound: OC[C@H]1O[C@@H](O[C@H]2[C@H](O)[C@@H](O)C(O)O[C@@H]2CO)[C@H](O)[C@@H](O)[C@H]1O (stereo partly drawn) [LAC, lactose]
hydrolysis in crystal, product seen by X-ray [1]: the active enzyme performed hydrolysis of lactose in crystal

Compound: OC[C@H]1O[C@@H](Oc2c[nH]c3ccc(Br)c(Cl)c23)[C@H](O)[C@@H](O)[C@H]1O [X-gal, 5-bromo-4-chloro-3-indolyl-β-D-galactopyranoside]
hydrolysis in crystal, blue coloration [2]: the enzyme in the crystal was in its active form and performed hydrolysis of X-gal

stoichiometry N [3]: 2
Compound: ArthβDG_E441Q mutein (β-D-galactosidase from Arthrobacter sp. 32cB, E441Q) (enzyme)
